# Assay results: patent US9139576B2, “Aminomethyl biaryl benzotriazole derivatives” (Merck Sharp & Dohme Corp., priority 2011, dated 2015)
# Biological target: T1, recombinant human mGluR2 (Homo sapiens, UniProt Q14416)
# T1 construct: expressed in transfected cells
# Assay: FLIPR Ca2+ mobilization assay, potentiation of mGluR2
# Assay type: cell-based
# Conditions: potentiation with EC20 glutamate (900 nM); CHO dhfr- cells expressing human mGluR2 and Gα16
# Protocol: Potencies are determined as follows. The compounds of the present invention may be tested in a fluorescence laser imaging plate reader (FLIPR) based assay. This assay is a common functional assay to monitor Ca^2+ mobilization in whole cells expressing recombinant receptor coupled with a promiscuous G-protein. CHO dhfr-cells stably expressing recombinant human mGluR2 and Gα16 loaded with Fluo-4 AM (Invitrogen, Carlsbad Calif.) are treated with varying concentrations of compounds and the Ca^2+ response is monitored on a FLIPR384 (Molecular Devices, Sunnydale Calif.) for agonist activity. The potentiation response is monitored after a subsequent addition of an EC20 concentration of glutamate (900 nM). The maximum calcium response at each concentration of compound for agonism or potentiation are plotted as dose responses curves fitted with a four parameters logistic equation giving EC50 and Hill coefficient using the iterative non linear curve fitting software program.
# T1 sequence (Q14416 19-872): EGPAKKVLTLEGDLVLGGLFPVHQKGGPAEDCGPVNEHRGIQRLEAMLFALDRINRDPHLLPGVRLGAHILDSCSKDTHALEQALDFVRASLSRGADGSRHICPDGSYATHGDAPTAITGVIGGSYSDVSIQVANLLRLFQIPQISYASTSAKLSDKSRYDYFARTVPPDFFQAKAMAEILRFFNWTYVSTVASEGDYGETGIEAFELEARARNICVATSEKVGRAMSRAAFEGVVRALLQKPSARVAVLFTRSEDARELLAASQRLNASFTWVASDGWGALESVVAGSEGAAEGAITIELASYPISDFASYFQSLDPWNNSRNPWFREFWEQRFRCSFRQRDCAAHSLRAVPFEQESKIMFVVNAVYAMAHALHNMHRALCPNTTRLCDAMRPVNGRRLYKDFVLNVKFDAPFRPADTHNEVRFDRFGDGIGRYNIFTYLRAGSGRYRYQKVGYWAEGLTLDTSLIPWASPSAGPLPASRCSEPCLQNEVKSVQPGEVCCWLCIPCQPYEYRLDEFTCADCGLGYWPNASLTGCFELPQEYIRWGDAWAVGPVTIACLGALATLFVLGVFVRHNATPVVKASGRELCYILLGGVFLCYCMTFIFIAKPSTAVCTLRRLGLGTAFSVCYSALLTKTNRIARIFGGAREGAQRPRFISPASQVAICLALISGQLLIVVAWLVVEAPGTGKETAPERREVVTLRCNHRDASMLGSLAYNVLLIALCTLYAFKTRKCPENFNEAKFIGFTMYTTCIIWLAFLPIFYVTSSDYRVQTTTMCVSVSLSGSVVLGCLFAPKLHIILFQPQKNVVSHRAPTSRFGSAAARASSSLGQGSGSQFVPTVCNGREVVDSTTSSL
row,SMILES,EC50 [nM]
1,"C[C@H](O)C(=O)NCc1ccc(-c2ccc3c(nnn3CC3CC3)c2C(F)(F)F)cc1 [Example 5, (2S)—N-{4-[1-(Cyclopropylmethyl)-4-(trifluoromethyl)-1H-benzotriazol-5-yl]benzyl}-2-hydroxypropanamide]",59.1
2,"Cn1c(=O)[nH]n(Cc2ccc(-c3ccc4c(nnn4CC(C)(C)C)c3Br)cc2)c1=O [Example 7, 1-{4-[4-Bromo-1-(2,2-dimethylpropyl)-1H-benzotriazol-5-yl]benzyl}-4-methyl-1,2,4-triazolidine-3,5-dione]",532
3,"CN1C(=O)CN(Cc2ccc(-c3ccc4c(nnn4CC4CC4)c3S(C)(=O)=O)cc2F)C1=O [Example 16, 1-{4-[1-(Cyclopropylmethyl)-4-(methylsulfonyl)-1H-benzotriazol-5-yl]-2-fluorobenzyl}-3-methylimidazolidine-2,4-dione]",245
4,"CN1C(=O)CN(Cc2ccc(-c3ccc4c(nnn4CC4CC4)c3[S+](C)[O-])cc2F)C1=O (stereo not shown) [Example 17, 1-{4-[1-(Cyclopropylmethyl)-4-(methylsulfinyl)-1H-benzotriazol-5-yl]-2-fluorobenzyl}-3-methylimidazolidine-2,4-dione]",1250
5,"CN1C(=O)CN(Cc2ccc(-c3ccc4c(nnn4CC4CC4)c3C=O)cc2)C1=O [Example 20, 1-(Cyclopropylmethyl)-5-{4-[(3-methyl-2,4-dioxoimidazolidin-1-yl)methyl]phenyl}-1H-benzotriazole-4-carbaldehyde]",56
6,"CN1C(=O)CN(Cc2ccc(-c3ccc4c(nnn4CC4CC4)c3CO)cc2)C1=O [Example 21, 1-{4-[1-(Cyclopropylmethyl)-4-(hydroxymethyl)-1H-benzotriazol-5-yl]benzyl}-3-methylimidazolidine-2,4-dione]",841
7,"CN1C(=O)CN(Cc2ccc(-c3ccc4c(c3)nnn4CC3CC3)cc2)C1=O [Example 28, 1-{4-[1-(Cyclopropylmethyl)-1H-benzotriazol-5-yl]benzyl}-3-methylimidazolidine-2,4-dione]",196
8,"[N-]=[N+]=NCc1ccc(-c2ccc3c(nnn3CC3CC3)c2Cl)cc1 [Example 37, 5-[4-(Azidomethyl)phenyl]-4-chloro-1-(cyclopropylmethyl)-1H-benzotriazole]",53
9,"NCc1ccc(-c2ccc3c(nnn3CC3CC3)c2Cl)cc1 [Example 38, 1-{4-[4-Chloro-1-(cyclopropylmethyl)-1H-benzotriazol-5-yl]phenyl}methanamine]",2320
10,"CC(C)(C)OC(=O)N1CCN(Cc2ccc(-c3ccc4c(nnn4CC4CC4)c3Cl)cc2)CC1 [Example 52, tert-Butyl 4-{4-[4-chloro-1-(cyclopropylmethyl)-1H-benzotriazol-5-yl]benzyl}piperazine-1-carboxylate]",80
11,"Clc1c(-c2ccc(CN3CCNCC3)cc2)ccc2c1nnn2CC1CC1 [Example 71, 4-Chloro-1-(cyclopropylmethyl)-5-[4-(piperazin-1-ylmethyl)phenyl]-1H-benzotriazole]",234
12,"CCOC(=O)CNC(=O)NCc1ccc(-c2ccc3c(nnn3CC3CC3)c2Cl)cc1 [Example 83, Ethyl N-({4-[4-chloro-1-(cyclopropylmethyl)-1H-benzotriazol-5-yl]benzyl}carbamoyl)glycinate]",124

# The next compounds have a lower EC50 than those just listed; values first:
row,EC50 [nM],SMILES
1,17.3,"CN1C(=O)CN(Cc2ccc(-c3ccc4c(nnn4CC4CC4)c3C(F)(F)F)c(F)n2)C1=O [Example 1, 1-({5-[1-(Cyclopropylmethyl)-4-(trifluoromethyl)-1H-benzotriazol-5-yl]-6-fluoropyridin-2-yl}methyl)-3-methylimidazolidine-2,4-dione]"
2,5.8,"CN1C(=O)CN(Cc2ccc(-c3ccc4c(nnn4CC4CC4)c3C(F)(F)F)cc2)C1=O [Example 2, 1-{4-[1-(Cyclopropylmethyl)-4-(trifluoromethyl)-1H-benzotriazol-5-yl]benzyl}-3-methylimidazolidine-2,4-dione]"
3,9.21,"O=C1CN(Cc2ccc(-c3ccc4c(nnn4CC4CC4)c3C(F)(F)F)cc2)C(=O)N1 [Example 4, 1-{4-[1-(Cyclopropylmethyl)-4-(trifluoromethyl)-1H-benzotriazol-5-yl]benzyl}imidazolidine-2,4-dione]"
4,3,"CC(C)Cn1nnc2c(Br)c(-c3ccc(CN4CC(=O)N(C)C4=O)cc3)ccc21 [Example 8, 1-{4-[4-Bromo-1-(2-methylpropyl)-1H-benzotriazol-5-yl]benzyl}-3-methylimidazolidine-2,4-dione]"
5,6.1,"CC(C)Cn1nnc2c(C(F)(F)F)c(-c3ccc(CN4CC(=O)N(C)C4=O)cc3)ccc21 [Example 9, 3-Methyl-1-{4-[1-(2-methylpropyl)-4-(trifluoromethyl)-1H-benzotriazol-5-yl]benzyl}imidazolidine-2,4-dione]"
6,5.3,"CN1C(=O)CN(Cc2ccc(-c3ccc4c(nnn4CC4CC4)c3Br)cc2)C1=O [Example 10, 1-{4-[4-Bromo-1-(cyclopropylmethyl)-1H-benzotriazol-5-yl]benzyl}-3-methylimidazolidine-2,4-dione]"
7,6.6,"CSc1c(-c2ccc(CN3CC(=O)N(C)C3=O)c(F)c2)ccc2c1nnn2CC1CC1 [Example 15, 1-{4-[1-(Cyclopropylmethyl)-4-(methylsulfanyl)-1H-benzotriazol-5-yl]-2-fluorobenzyl}-3-methylimidazolidine-2,4-dione]"
8,39,"CN1C(=O)CN(Cc2ccc(-c3ccc4c(nnn4CC4CC4)c3C#N)cc2)C1=O [Example 18, 1-(Cyclopropylmethyl)-5-{4-[(3-methyl-2,4-dioxoimidazolidin-1-yl)methyl]phenyl}-1H-benzotriazole-4-carbonitrile]"
9,7.8,"CCc1c(-c2ccc(CN3CC(=O)N(C)C3=O)cc2)ccc2c1nnn2CC1CC1 [Example 19, 1-{4-[1-(Cyclopropylmethyl)-4-ethyl-1H-benzotriazol-5-yl]benzyl}-3-methylimidazolidine-2,4-dione]"
10,14,"CN1C(=O)CN(Cc2ccc(-c3ccc4c(nnn4CC4CC4)c3CF)cc2)C1=O [Example 22, 1-{4-[1-(Cyclopropylmethyl)-4-(fluoromethyl)-1H-benzotriazol-5-yl]benzyl}-3-methylimidazolidine-2,4-dione]"
11,11.4,"CN1C(=O)CN(Cc2ccc(-c3ccc4c(nnn4CC4CC4)c3Cl)cc2)C1=O [Example 29, 1-{4-[4-Chloro-1-(cyclopropylmethyl)-1H-benzotriazol-5-yl]benzyl}-3-methylimidazolidine-2,4-dione]"
12,49,"C[C@@H](O)C(=O)NCc1ccc(-c2ccc3c(nnn3CC3CC3)c2Cl)cc1 [Example 39, (2R)—N-{4-[4-chloro-1-(cyclopropylmethyl)-1H-benzotriazol-5-yl]benzyl}-2-hydroxypropanamide]"
13,11.4,"O=C1CN(Cc2ccc(-c3ccc4c(nnn4CC4CC4)c3Cl)cc2)C(=O)N1 [Example 51, 1-{4-[4-Chloro-1-(cyclopropylmethyl)-1H-benzotriazol-5-yl]benzyl}imidazolidine-2,4-dione]"
14,30.4,"N#CCC(=O)N1CCN(Cc2ccc(-c3ccc4c(nnn4CC4CC4)c3Cl)cc2)CC1 [Example 72, 3-(4-{4-[4-Chloro-1-(cyclopropylmethyl)-1H-benzotriazol-5-yl]benzyl}piperazin-1-yl)-3-oxopropanenitrile]"
15,34.9,"O=C1CNC(=O)N1Cc1ccc(-c2ccc3c(nnn3CC3CC3)c2Cl)cc1 [Example 84, 3-{4-[4-Chloro-1-(cyclopropylmethyl)-1H-benzotriazol-5-yl]benzyl}imidazolidine-2,4-dione]"
16,8.9,"CN1CC(=O)N(Cc2ccc(-c3ccc4c(nnn4CC4CC4)c3Cl)cc2)C1=O [Example 85, 3-{4-[4-Chloro-1-(cyclopropylmethyl)-1H-benzotriazol-5-yl]benzyl}-1-methylimidazolidine-2,4-dione]"
